What is called IC50 is the concentration needed to halve the response being measured.

Data set [1] relates to HeLa human cervical carcinoma cell line. Kind of data set: MTT in vitro cytotoxicity, HeLa. Particulars: incubation 24 h, mean ± SD. Format: cell-based. The procedure: (§1) The cytotoxicity assessment was conducted on various human cancer cell lines, including A2780 ovarian carcinoma, A2780R cisplatin-resistant ovarian carcinoma, MCF-7 breast, HOS osteosarcoma, A549 epithelial lung, PANC-1 pancreatic, Caco-2 colorectal, PC-3 prostate adenocarcinoma, and HeLa cervical cell lines. Additionally, the assessment extended to a normal human fetal fibroblast cell line (MRC-5). Cells were obtained from ATCC collection and cultivated according to the producer’s instructions. Stock solutions of the compounds were prepared in DMF immediately before application, and diluted with H2O to achieve the final concentration of 0.1% v/v DMF.[99] The culture media were enriched with 10% fetal calf serum. Subsequently, the cells were exposed to the tested compounds, vehicle (0.1% v/v DMF) and Triton X-100 (1% v/v), during incubation. The conventional MTT assay was carried out following different incubation periods (Tables 5-6). The absorbance was measured at 570 nm by using a spectrophotometer (Infinite M200, Schoeller Instruments, Prague, Czech Republic). The obtained data are presented as the percentage of cell viability with 100% representing negative control treatment (0.1% v/v DMF) and 0% representing the positive control (Triton X-100). The half-maximal inhibitory concentrations (IC50) were determined from dose–response curves using GraphPad Prism 6 software (GraphPad Software, San Diego, USA).

The subject of data set [2] is PANC-1 human pancreatic carcinoma cell line. Nature of the data set: MTT in vitro cytotoxicity, PANC-1. The format is cell-based. Particulars: for IC50: incubation 24 h, mean ± SD. Here is the method:
as §1

In data set [3] the test system is A549 human lung adenocarcinoma cell line. Nature of the data set: MTT in vitro cytotoxicity, A549. Format: cell-based. Particulars: for IC50: incubation 24 h, mean ± SD. The procedure: as §1
Data set [4] concerns PC-3 human prostate carcinoma cell line. Nature of the data set: MTT in vitro cytotoxicity, PC-3. Particulars: incubation 24 h, mean ± SD. The format is cell-based. Here is the method: as §1
For data set [5], the system named is A2780 human ovarian carcinoma cell line. Nature of the data set: MTT in vitro cytotoxicity, A2780. The format is cell-based. Here is the method: as §1
Data set [6] concerns Caco-2 human colorectal adenocarcinoma cell line. Kind of data set: MTT in vitro cytotoxicity, Caco-2. Format: cell-based. Particulars: for IC50: incubation 24 h, mean ± SD. The procedure:
as §1, with “Additionally,” for “The cytotoxicity assessment was conducted on various human cancer cell lines, including A2780 ovarian carcinoma, A2780R cisplatin-resistant ovarian carcinoma, MCF-7 breast, HOS osteosarcoma, A549 epithelial lung, PANC-1 pancreatic, Caco-2 colorectal, PC-3 prostate adenocarcinoma, and HeLa cervical cell lines. Additionally,”

Data set [7] relates to A2780R cisplatin-resistant human ovarian carcinoma cell line. Kind of data set: MTT in vitro cytotoxicity, A2780R. Particulars: incubation 24 h, mean ± SD. Format: cell-based. Here is the method: as §1
The subject of data set [8] is HOS human osteosarcoma cell line. Kind of data set: MTT in vitro cytotoxicity, HOS. The format is cell-based. Particulars: incubation 24 h, mean ± SD. The procedure: as §1
Data set [9] can be described thus: Stability in H2O/CH3OH solution (UV–vis). Format: physicochemical. Particulars: ca. 5:1 v/v. The procedure:
(§2) […] The percentage of remaining complex in the solution was calculated by considering the change in absorbance at the characteristic wavelength. The identical procedure was employed to evaluate stability in MeOH and DMEM (about 1:5 v/v) solutions. DMEM stands for the cell culture medium (containing 1000 mg/L glucose and L-glutamine, excluding sodium bicarbonate and phenol red; reference D2902-Merck).

Data set [10] deals with MRC-5 normal human lung fibroblast cell line. Kind of data set: MTT in vitro cytotoxicity, MRC-5 (selectivity). Format: cell-based. Particulars: normal cells, MTT, incubation 24 h, mean ± SD. The procedure: as §1
For data set [11], the system named is MCF-7 breast adenocarcinoma cell line. Kind of data set: MTT in vitro cytotoxicity, MCF-7. Format: cell-based, human. Particulars: incubation 24 h, mean ± SD. Here is the method:
as §1

A short description of data set [12]: Octanol/water partition coefficient, shake-flask with UV–vis. The format is physicochemical. Particulars: 21 °C. The procedure:
Partition coefficients (Pow), defined by the formula Pow = corg/caq, wherein corg and caq denote the molar concentrations of the specific compound in octanol and aqueous phases, respectively, were obtained using the shake-flask method with UV–vis measurements, following a previously described procedure (Table 3).[98] All the operations were carried out at 21 ± 1 °C. The wavelength corresponding to the maximum absorption of each compound within the range 350–430 nm was employed for quantifying using UV–vis techniques.

The nature of data set [13]: Stability in DMEM/CH3OH solution (UV–vis). The format is physicochemical. Particulars: ca. 5:1 v/v. Here is the method:
as §2

The subject of data set [14] is A2780 cells. Kind of data set: Apoptosis, Annexin V/propidium iodide flow cytometry. Particulars: A2780, cisplatin 15 μM, 24 h, Annexin V/PI. The format is cell-based, human. Here is the method: (§3) The A2780 ovarian carcinoma cell line was received from Merck (reference 93112519–1VL) and cultured at 37 °C in an environment with 5% CO2. The cultivation was carried out in complete cell culture medium (RPMI-1640 medium, Merck), which was supplemented with 10% fetal bovine serum (FBS, Merck), 1% L-glutamine (Merck) and 1% penicillin–streptomycin–neomycin (PSN, Merck). For the flow cytometry experiments, three independent duplicates were analyzed using a BD FACSVerse flow cytometer (Becton Dickinson, USA). At least 5 × 10^3 events were recorded for each sample. The same procedure was replicated for the experiments described below. Solutions of the complexes were formulated using the stock solutions (Section 5.1).
Apoptosis assay was performed using an Annexin V-FITC/PI commercial kit (V13242, Thermo Fisher Scientific, USA), while caspase 3/7 activation assay was performed with a CellEvent Caspase-3/7 Green Flow Cytometry Assay Kit (C10427, Thermo Fisher Scientific, USA). A2780 cells were seeded in 24-well plates at a density of 5 × 10^4 cells per well; after 24 h, the cells were exposed to 4 μM solution of the selected complex for 24 h. […] The supernatant was collected, cells were washed with PBS (0.1 M, pH 7.4), and trypsin was added (0.25% trypsin-EDTA, GibcoTM). Finally, complete cell culture medium was added to stop the trypsinization, and a final volume of 500 μL was divided into two 250 μL aliquots, following the protocol provided by the manufacturer. Samples were centrifuged, treated with the respective buffers, and then incubated in the dark at room temperature for 10 min (Annexin V-FITC/PI) or at 37 °C for 30 min (CellEventTM Caspase-3/7 Green Detection Reagent).

For data set [15], the system named is A2780 cells. Kind of data set: Autophagy analysis (CYTO-ID). The format is cell-based, human. Particulars: A2780, complexes 4 μM, cisplatin 15 μM, 24 h. Here is the method: as §3
The potential induction of autophagy by 3a and 3b in A2780 cells was studied with the kit CYTO-ID Autophagy Detection 2.0 (from Enzo Life Sciences, USA), following the protocol provided by the manufacturer. […] The supernatant was collected, cells were washed with warm PBS, detached using 0.25% trypsin-EDTA (Gibco) and resuspended in a cell culture medium. Diluted CYTO-ID Green stain solution (according to the protocol) was used to stain the samples. Following incubation for 30 min in a light-protected environment, the samples were washed with PBS (phosphate-buffered saline). Subsequently, a flow cytometry experiment was conducted. A mixture of chloroquine (10 μM) and rapamycin (0.5 μM) was used as positive control.

In data set [16] the test system is A2780 cells. Nature of the data set: Mitochondrial membrane potential analysis (MITO-ID). The format is cell-based, human. Particulars: A2780, complexes 4 μM, cisplatin 15 μM, 24 h. Here is the method: as §3
To investigate the effects on mitochondrial membrane potential of A2780 cells, an MITO-ID Membrane potential detection kit (Enzo Life Sciences, USA) was used. Cells were seeded in a 24-well (5 × 10^4 cells/well), and then incubated with 4 μM solution of complexes for 24 h. The supernatant was collected, cells were washed with warm PBS, detached using 0.25% trypsin-EDTA (Gibco) and resuspended in a cell culture medium. Then, samples were stained with diluted MITO-ID MP Detection Reagent (according to the protocol) at RT for 15 min, prior to flow cytometry analysis. A positive control was established by treating the samples with 2 μM carbonyl cyanide 3-chlorophenylhydrazone.

The mark [17] stands for this setting: MTT, incubation 24 h, mean ± SD (Table 5), read-out: IC50 A2780.
The mark [18] stands for this setting: time-course experiment (Table 6), 24 h, mean ± SD, read-out: IC50 A2780, incubation time 24 h.
Setting [19] is: time-course experiment (Table 6), 48 h, mean ± SD, read-out: IC50 A2780, incubation time 48 h.
[20] abbreviates: time-course experiment (Table 6), 72 h, mean ± SD, read-out: IC50 A2780, incubation time 72 h.

Read-outs that look alike come from different tables or passages of the source. Bounds are passed on as bounds.

In the case of `CC12CCC3C(CCC4=CC(=O)CCC43C)C1CCC2=C=[CH][Ru]1(=[C]=O)([CH]2C=CC=C2)[C](=O)[Ru+]1(=[C]=O)[CH]1C=CC=C1.F[B-](F)(F)F` (mixture of isomers) [3c, [Ru2Cp2(CO)3{μ–η^1:η^2-CH=C=(testosteronylidene)}]BF4], the IC50 in data set [1] amounted to 16.3 ± 1.3 µM; in data set [2] it was 30 ± 0.6 µM; in data set [3], 20.7 ± 1.4 µM; in data set [4], 19.6 ± 3.7 µM; in data set [5] (setting [17]) it was 6.3 ± 1.3 µM; in [5] (setting [18]), 4.7 ± 1 µM. For the same molecule, the IC50 came to 5.1 ± 0.7 µM in data set [5] (setting [19]); 6.8 ± 1.3 µM in data set [5] (setting [20]); 42.8 ± 0.8 µM in data set [6]; 11.7 ± 2.4 µM in data set [7]; 17.7 ± 2.8 µM in data set [8]; 21.5 ± 4 µM in data set [10]. For the same molecule, in data set [11], the half-inhibitory concentration (IC50) worked out at 22 ± 4 µM. Also, the “residual complex % in H2O/CH3OH” value in [9] (2 h) is recorded as 94%; in [9] (18 h), 73%. In data set [12], the “Log Pow” value is on record as 0.89 ± 0.12. Also, the “residual complex % in DMEM/CH3OH” value in data set [13] (2 h) turned out to be 89%; in data set [13] (18 h), 67%.
As for `Cc1ccc(C(C)C)cc1.[Cl][Ru]([Cl])[PH]12CN3CN(CN(C3)C1)C2` [RAPTA-C, [Ru(η^6-p-cymene)Cl2(pta)], reference compound], the IC50 in data set [1], in [2], in data set [3], in data set [4], in data set [5] (setting [17]) and in data set [5] (setting [18]) was over 50 µM in each case. Also, the half-maximal inhibitory concentration (IC50) in [5] (setting [19]), in data set [5] (setting [20]), in data set [6], in data set [7], in data set [8] and in data set [10] was over 50 µM each time. The molecule further gave an IC50 in data set [11] of over 50 µM.
On to `N.N.[Cl][Pt][Cl]` [cisplatin, reference compound], for which the “cells with apoptotic changes” value in the data set on A2780 cells [14] is recorded as “ca. 40 % of the cells”. Also, the IC50 is 30.7 ± 0.6 µM in [1]; over 50 µM in [2]; 39.2 ± 3.1 µM in data set [3]; over 50 µM in data set [4]; 40 ± 3.9 µM in data set [7]; 26.3 ± 3.3 µM in [8]. Also, the IC50 was over 50 µM in [10] and 28.4 ± 2.7 µM in [11]. The “autophagy level (in words)” value in the data set with A2780 cells [15] is “significantly enhanced”. For the same molecule, the “cell count with damaged mitochondrial membranes (in words)” value in the data set on A2780 cells [16] is “notable augmentation”.
With “[Ru2Cp2(CO)2{μ–η^1:η^3-CH=C(17α-estradiol)C(=O)}] [2b]”, the IC50 was 5.5 ± 0.9 µM in data set [1]; over 50 µM in [2]; over 50 µM in data set [3]; 36 ± 4.1 µM in data set [4]; 6.2 ± 1.2 µM in data set [5] (setting [17]); 5.8 ± 0.4 µM in data set [5] (setting [18]). The IC50 in [5] (setting [19]) is 4.7 ± 0.8 µM; in data set [5] (setting [20]), 4.2 ± 0.6 µM; in [6], over 50 µM; in [7] it was 7.3 ± 2.4 µM; in data set [8], 24 ± 3.8 µM; in [10], over 50 µM. The molecule further registered an IC50 in data set [11] of 19 ± 4.5 µM. In addition, the “activity toward PANC-1 cells (in words)” value in data set [2] (24 h) was “inactive”. In addition, the “activity toward A549 cells (in words)” value in [3] (24 h) was “inactive”. Also, in data set [6] (24 h), the “activity toward Caco-2 cells (in words)” value is “inactive”. The “residual complex % in H2O/CH3OH” value in data set [9] (30 min) is on record as 69%; in data set [9] (18 h), 0%. Besides, the “Log Pow” value in data set [12] is listed as over 1.5. Besides, the “residual complex % in DMEM/CH3OH” value was determined as 50% in data set [13] (2 h) and 21% in data set [13] (18 h).

Values taken from paper PMC10548421, “Anticancer Potential of Diruthenium Complexes with Bridging Hydrocarbyl Ligands from Bioactive Alkynols” (Inorganic Chemistry, 2023).
